One compound from ChEMBL document CHEMBL5034001 (J Med Chem, 2021) can be followed below.

Calls of active or inactive are those of the source. No cut-off for these calls is given here.

A word on the IC50: it is the point on the concentration scale where inhibition reaches its midpoint. A high value points to weaker potency.

The test system of series [1] is Epidermal growth factor receptor (Homo sapiens), P00533 [UNDEFINED MUTATION]. Description: Binding affinity to human partial length EGFR L747-E749del/A750P mutant expressed in bacterial expression system assessed as residual binding level at 100 nM by Kinomescan method relative to control.
Series [2] can be described thus: Metabolic stability in CD-1 mouse liver microsomes preincubated for 10 mins followed by NADPH regenerating system addition and measured after 10 mins by LC-MS/MS analysis. The format is ADME, Microsome. The settings on record: time 20 min, read-out: Stability. A general note: Microsomes from liver hold many membrane-bound enzymes, among them those of drug oxidation.

Series [3] is described as follows: Metabolic stability in human liver microsomes assessed as intrinsic clearance preincubated for 10 mins followed by NADPH regenerating system addition and measured after 10 mins by LC-MS/MS analysis. Type of series: ADME, Microsome. The settings on record: time 20 min, read-out: CLH.
In series [4] the target is T1, ALK tyrosine kinase receptor (Homo sapiens, UniProt Q9UM73). As to the kind of experiment: Induction of ALK degradation in human SR cells at 100 nM pretreated with proteosome inhibitor MLN4924 for 4 hrs followed by compound addition and measured after 16 hrs by Western blot analysis. Type of series: cell-based. (Immunoblotting shows a protein as a band on a membrane.)
Target sequence in this assay (Q9UM73 19-1620 limits assumed): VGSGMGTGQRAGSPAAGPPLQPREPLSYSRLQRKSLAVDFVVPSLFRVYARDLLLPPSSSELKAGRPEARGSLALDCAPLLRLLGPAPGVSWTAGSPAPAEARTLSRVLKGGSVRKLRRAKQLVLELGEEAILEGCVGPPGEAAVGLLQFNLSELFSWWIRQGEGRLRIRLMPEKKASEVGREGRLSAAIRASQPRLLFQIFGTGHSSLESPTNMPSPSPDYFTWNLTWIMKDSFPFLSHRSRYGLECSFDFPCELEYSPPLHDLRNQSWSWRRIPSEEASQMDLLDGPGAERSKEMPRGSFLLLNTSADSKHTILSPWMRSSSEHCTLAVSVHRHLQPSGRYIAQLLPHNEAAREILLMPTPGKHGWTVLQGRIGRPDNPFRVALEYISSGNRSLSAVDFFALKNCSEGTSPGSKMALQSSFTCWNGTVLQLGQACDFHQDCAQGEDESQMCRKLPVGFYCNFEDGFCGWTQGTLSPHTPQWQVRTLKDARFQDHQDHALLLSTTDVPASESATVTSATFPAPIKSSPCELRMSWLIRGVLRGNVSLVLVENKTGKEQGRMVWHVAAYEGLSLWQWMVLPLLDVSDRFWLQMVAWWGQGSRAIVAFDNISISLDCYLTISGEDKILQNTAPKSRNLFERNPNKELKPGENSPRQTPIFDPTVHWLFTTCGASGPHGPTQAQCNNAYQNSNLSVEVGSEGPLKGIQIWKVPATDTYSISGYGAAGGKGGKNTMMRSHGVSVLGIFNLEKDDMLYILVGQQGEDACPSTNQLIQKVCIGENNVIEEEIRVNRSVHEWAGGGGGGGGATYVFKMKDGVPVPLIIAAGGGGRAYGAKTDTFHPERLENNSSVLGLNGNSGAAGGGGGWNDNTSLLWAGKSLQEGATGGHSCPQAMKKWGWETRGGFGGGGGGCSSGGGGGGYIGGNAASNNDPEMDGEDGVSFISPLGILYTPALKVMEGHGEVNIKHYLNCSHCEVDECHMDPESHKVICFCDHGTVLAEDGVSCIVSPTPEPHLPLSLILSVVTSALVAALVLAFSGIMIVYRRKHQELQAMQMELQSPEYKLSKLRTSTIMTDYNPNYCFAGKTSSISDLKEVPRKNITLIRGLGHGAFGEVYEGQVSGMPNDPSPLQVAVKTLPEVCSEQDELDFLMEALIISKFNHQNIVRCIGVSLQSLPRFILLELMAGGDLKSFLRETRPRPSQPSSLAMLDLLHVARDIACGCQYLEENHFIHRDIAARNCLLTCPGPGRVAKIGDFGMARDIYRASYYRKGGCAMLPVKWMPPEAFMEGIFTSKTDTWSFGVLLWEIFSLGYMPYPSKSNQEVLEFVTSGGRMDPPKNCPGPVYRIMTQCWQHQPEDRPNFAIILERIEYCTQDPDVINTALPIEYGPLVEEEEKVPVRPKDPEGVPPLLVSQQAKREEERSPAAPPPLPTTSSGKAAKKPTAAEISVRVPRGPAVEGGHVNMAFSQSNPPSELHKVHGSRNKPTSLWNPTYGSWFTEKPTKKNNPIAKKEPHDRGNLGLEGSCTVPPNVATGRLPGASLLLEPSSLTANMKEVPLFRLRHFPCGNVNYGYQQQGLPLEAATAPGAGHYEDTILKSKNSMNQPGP

The target of series [5] is Protein-tyrosine kinase 2-beta (Homo sapiens) (UniProt Q14289). Description: Induction of PYK2 degradation in human MDA-MB-231 cells at 10 nM after 1 to 2 hrs by Western blot analysis. Type of series: cell-based. To be noted: time 1-2 hrs.
Series [6] deals with Serine/threonine-protein kinase SBK1 (Homo sapiens) (UniProt Q52WX2). As to the kind of experiment: Binding affinity to wild-type human partial length SBK1 (P23 to P348 residues) expressed in mammalian expression system assessed as residual binding level at 100 nM by Kinomescan method relative to control.
In series [7] the target is Ribosomal protein S6 kinase alpha-3 (Homo sapiens) (UniProt P51812). Description: Binding affinity to wild-type human partial length N- terminal RSK2 kinase domain 1 (M1 to D394 residues) expressed in mammalian expression system assessed as residual binding level at 100 nM by Kinomescan method relative to control.
A further series deals with Calu-1. As to the kind of experiment: Inhibition of cell invasion in human Calu-1-GFP cells at 100 nM after 24 hrs by transwell invasion assay. Type of series: functional, cell-based.
The next series has as its system NCI-H2228. As to the kind of experiment: Down regulation of FAK in human NCI-H2228 cells at 1 to 1000 nM after 16 hrs by Western blot analysis. The settings on record: dose 1-1000 nM. Type of series: functional, cell-based.
For series [8], the target named is T1, ALK tyrosine kinase receptor. As to the kind of experiment: Inhibition of ALK downstream signalling in human SR cells assessed as reduction in ratio of pALK at 0.1 to 50 nM by Western blot analysis. Type of series: cell-based. To be noted: dose 0.1-50 nM.
Target sequence in this assay (Q9UM73 19-1620 limits assumed): as above
Series [9] deals with Serine/threonine-protein kinase PLK4 (Homo sapiens) (UniProt O00444). As to the kind of experiment: Binding affinity to wild-type human partial length PLK4 (M1 to S273 residues) expressed in mammalian expression system assessed as residual binding level at 100 nM by Kinomescan method relative to control.
Series [10] has as its target Protein-tyrosine kinase 2-beta (Homo sapiens) (UniProt Q14289). Description: Induction of PYK2 degradation in human SR cells at 1 nM after 16 hrs by Western blot analysis. Type of series: cell-based.
Series [11] relates to Epidermal growth factor receptor (Homo sapiens), P00533 [L858R,T790M]. As to the kind of experiment: Binding affinity to human partial length EGFR L858R/T790M double mutant (R669 to V1011 residues) expressed in mammalian expression system assessed as residual binding level at 100 nM by Kinomescan method relative to control.
For series [12] the test system is unchanged. As to the kind of experiment: Induction of EGFR L858R/T790M mutant degradation in human […] at 100 nM by Western blot analysis. The format is cell-based.
The target in series [13] is T1, ALK tyrosine kinase receptor. As to the kind of experiment: Induction of ALK degradation in human SR cells at 100 nM pretreated with proteosome inhibitor MG132 for 4 hrs followed by compound addition and measured after 16 hrs by Western blot analysis. Type of series: cell-based.
Target sequence in this assay (Q9UM73 19-1620 limits assumed): as above
For series [14] the target is unchanged. As to the kind of experiment: Binding affinity to ALK (unknown origin).
Series [15] is described as follows: Metabolic stability in human liver microsomes preincubated for 10 mins followed by NADPH regenerating system addition and measured after 10 mins by LC-MS/MS analysis. Type of series: ADME, Microsome. The settings on record: time 20 min, read-out: Stability.
Series [16] deals with Focal adhesion kinase 1 (Homo sapiens) (UniProt Q05397). Description: Induction of FAK degradation in human NCI-H2228 cells at 1 nM after 16 hrs by Western blot analysis. Type of series: cell-based.
In series [17] the target is T1, ALK tyrosine kinase receptor. Description: Binding affinity to wild-type human partial length ALK (I1088 to E1409 residues) expressed in mammalian expression system assessed as residual binding level at 100 nM by Kinomescan method relative to control.
Target sequence in this assay (Q9UM73 19-1620 limits assumed): as above
For series [18], the system named is Receptor-type tyrosine-protein kinase FLT3 (Homo sapiens), P36888 [D835V]. As to the kind of experiment: Binding affinity to human partial length FLT3 D835V mutant (V592 to Y969 residues) expressed in bacterial expression system assessed as residual binding level at 100 nM by Kinomescan method relative to control.
Series [19] deals with Serine/threonine-protein kinase ULK1 (Homo sapiens) (UniProt O75385). Description: Binding affinity to wild-type human partial length ULK1 (M1 to T309 residues) expressed in mammalian expression system assessed as residual binding level at 100 nM by Kinomescan method relative to control.
Series [20] relates to ALK tyrosine kinase receptor (Homo sapiens), Q9UM73 [G1202R]. As to the kind of experiment: Induction of […] G1202R mutant degradation in human […] at 100 nM by Western blot analysis. The format is cell-based.
Series [21] deals with ALK tyrosine kinase receptor (Homo sapiens, UniProt Q9UM73, G1202R). As to the kind of experiment: Binding affinity to ALK G1202R mutant (unknown origin).
Series [22] addresses Focal adhesion kinase 1 (Homo sapiens) (UniProt Q05397). Description: Induction of FAK degradation in human A549 cells at 1 nM after 16 hrs by Western blot analysis. Type of series: cell-based.

Chain of Protein-tyrosine kinase 2-beta (Homo sapiens) (Q14289 whole entry, looked up, the tested form may be a part): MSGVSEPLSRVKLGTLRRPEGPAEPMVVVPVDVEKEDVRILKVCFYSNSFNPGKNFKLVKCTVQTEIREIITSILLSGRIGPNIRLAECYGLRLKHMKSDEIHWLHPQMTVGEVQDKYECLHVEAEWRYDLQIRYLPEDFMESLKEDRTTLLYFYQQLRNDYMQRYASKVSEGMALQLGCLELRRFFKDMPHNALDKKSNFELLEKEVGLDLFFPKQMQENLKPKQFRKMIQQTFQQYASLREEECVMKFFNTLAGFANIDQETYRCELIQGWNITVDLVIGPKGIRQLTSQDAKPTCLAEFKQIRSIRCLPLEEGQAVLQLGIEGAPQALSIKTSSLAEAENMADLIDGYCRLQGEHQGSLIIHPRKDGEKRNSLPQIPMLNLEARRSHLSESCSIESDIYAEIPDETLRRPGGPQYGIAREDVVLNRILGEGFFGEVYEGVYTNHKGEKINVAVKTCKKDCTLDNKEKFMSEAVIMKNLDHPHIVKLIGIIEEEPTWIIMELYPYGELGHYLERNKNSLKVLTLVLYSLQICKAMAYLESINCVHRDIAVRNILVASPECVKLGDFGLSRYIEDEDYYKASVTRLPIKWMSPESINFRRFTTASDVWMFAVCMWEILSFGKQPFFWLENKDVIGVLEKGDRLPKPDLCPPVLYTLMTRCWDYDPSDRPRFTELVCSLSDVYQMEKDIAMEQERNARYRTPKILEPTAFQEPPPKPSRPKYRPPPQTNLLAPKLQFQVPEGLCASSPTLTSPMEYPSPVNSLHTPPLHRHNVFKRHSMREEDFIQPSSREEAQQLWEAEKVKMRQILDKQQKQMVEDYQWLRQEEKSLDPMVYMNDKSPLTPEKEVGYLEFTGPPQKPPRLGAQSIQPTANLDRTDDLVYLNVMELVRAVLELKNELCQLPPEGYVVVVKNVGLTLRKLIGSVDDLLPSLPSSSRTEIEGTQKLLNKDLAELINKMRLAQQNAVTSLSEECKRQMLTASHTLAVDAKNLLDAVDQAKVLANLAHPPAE
Chain of Focal adhesion kinase 1 (Homo sapiens) (Q05397 2-1052 limits assumed): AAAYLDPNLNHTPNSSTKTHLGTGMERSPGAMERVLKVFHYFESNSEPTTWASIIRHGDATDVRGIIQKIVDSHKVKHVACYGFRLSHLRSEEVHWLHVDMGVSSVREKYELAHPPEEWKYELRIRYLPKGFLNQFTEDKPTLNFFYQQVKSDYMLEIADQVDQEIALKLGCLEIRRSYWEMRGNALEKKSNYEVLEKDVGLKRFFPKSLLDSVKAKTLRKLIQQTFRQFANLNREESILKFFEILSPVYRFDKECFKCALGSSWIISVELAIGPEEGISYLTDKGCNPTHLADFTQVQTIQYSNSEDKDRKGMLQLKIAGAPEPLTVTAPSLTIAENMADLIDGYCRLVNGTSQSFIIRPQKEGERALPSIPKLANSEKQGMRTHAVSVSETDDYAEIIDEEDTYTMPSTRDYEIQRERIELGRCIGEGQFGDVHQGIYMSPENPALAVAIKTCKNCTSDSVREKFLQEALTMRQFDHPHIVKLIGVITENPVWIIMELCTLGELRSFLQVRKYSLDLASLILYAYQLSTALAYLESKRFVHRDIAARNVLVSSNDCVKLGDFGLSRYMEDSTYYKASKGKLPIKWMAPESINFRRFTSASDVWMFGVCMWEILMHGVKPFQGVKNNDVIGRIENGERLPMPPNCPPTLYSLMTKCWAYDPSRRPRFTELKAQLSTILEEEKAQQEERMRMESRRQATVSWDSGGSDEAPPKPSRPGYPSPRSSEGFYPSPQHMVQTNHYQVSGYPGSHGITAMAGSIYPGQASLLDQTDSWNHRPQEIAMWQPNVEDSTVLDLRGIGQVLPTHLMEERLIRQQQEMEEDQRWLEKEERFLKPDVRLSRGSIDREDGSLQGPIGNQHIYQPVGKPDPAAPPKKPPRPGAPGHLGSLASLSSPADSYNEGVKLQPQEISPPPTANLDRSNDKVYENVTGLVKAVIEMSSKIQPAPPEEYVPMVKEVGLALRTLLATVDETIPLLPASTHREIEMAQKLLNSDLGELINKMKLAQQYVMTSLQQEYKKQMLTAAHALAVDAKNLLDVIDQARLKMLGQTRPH
Chain of Serine/threonine-protein kinase ULK1 (Homo sapiens) (O75385 whole entry, the tested form may be a part): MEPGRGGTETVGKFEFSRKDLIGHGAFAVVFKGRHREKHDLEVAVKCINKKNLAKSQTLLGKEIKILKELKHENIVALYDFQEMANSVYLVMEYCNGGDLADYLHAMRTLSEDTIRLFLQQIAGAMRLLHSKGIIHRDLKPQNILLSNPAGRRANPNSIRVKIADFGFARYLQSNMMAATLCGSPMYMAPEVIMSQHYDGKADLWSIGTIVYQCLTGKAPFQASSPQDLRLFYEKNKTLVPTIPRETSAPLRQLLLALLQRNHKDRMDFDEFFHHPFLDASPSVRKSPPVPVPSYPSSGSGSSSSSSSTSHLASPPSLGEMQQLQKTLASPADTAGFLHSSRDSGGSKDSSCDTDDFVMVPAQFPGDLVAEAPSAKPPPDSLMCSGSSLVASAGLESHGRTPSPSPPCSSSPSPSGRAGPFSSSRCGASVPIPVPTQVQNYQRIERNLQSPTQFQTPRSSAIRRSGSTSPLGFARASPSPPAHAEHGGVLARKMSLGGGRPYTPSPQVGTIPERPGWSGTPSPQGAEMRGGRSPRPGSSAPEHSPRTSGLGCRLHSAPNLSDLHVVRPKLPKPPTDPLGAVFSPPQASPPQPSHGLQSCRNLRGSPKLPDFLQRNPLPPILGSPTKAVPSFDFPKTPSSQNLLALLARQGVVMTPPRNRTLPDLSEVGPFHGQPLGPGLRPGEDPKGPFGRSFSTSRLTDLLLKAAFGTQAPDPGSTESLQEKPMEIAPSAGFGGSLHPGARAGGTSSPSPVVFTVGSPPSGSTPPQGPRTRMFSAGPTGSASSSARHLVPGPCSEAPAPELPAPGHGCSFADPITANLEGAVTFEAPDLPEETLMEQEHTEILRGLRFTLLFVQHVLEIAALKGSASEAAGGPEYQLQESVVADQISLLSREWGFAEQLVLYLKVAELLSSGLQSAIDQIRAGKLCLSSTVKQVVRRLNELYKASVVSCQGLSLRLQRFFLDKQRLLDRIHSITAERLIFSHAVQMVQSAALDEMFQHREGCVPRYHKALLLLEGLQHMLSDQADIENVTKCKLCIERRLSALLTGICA
Chain of ALK tyrosine kinase receptor (Homo sapiens, UniProt Q9UM73, G1202R) (Q9UM73 19-1620 G1202R limits assumed): as the sequence (Q9UM73 19-1620 limits assumed) above, with G1184R counted along it

For the compound `COc1cc(N2CCC(N3CCN(C(=O)CNc4cccc5c4C(=O)N(C4CCC(=O)NC4=O)C5=O)CC3)CC2)ccc1Nc1ncc(Cl)c(Nc2ccccc2P(C)(C)=O)n1` (centres undefined), the Activity in [1] is 6.9%; in series [6], 3.9%; in series [7] it was 2.1%; in series [9], 8.3%; in series [11] it was 3.5%; in series [17] it was 5.3%. In addition, the Activity came to 0% in [18] and 1.6% in series [19]. The microsomal CLint is 16.7 µL/min/mg in series [2] and under 9.6 µL/min/mg in series [15]. Moreover, the CLint scaled in series [3] stood at 22.6 mL/min/kg. The outcome in series [4] and in series [13] was inactive. The result (in [5]; in the series on NCI-H2228; in series [10]; in series [12]; in series [16]; in series [20]) was Active. In addition, the outcome in series [22] was Active. Further, the inhibition entry in the series on Calu-1 is “Active”. Besides, the Ratio in series [8] was 0.18. Also, the IC50 in [14] was determined as 2.5 nM; in series [21] it was 6.6 nM.
